In PubChem BioAssay (NCI):
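How tested: cells in 96-well plates exposed to compound for 48 hours at five concentrations. GI50 is the concentration that inhibits growth by half. TGI is the concentration that stops growth completely.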

Assays:
Assay in all cases: inhibition of tumour cell growth, NCI panel, 48 h
A498 renal = system: A498 renal
SK-MEL-28 melanoma = system: SK-MEL-28 melanoma
M14 melanoma = system: M14 melanoma
HCT-116 colon = system: HCT-116 colon
786-0 renal = system: 786-0 renal
COLO 205 colon = system: COLO 205 colon
U251 CNS = system: U251 CNS
OVCAR-5 ovarian = system: OVCAR-5 ovarian
UO-31 renal = system: UO-31 renal
CAKI-1 renal = system: CAKI-1 renal

| Structure (SMILES) | GI50 (A498 renal) [µM] | TGI (A498 renal) [µM] | GI50 (SK-MEL-28 melanoma) [µM] | TGI (SK-MEL-28 melanoma) [µM] | GI50 (M14 melanoma) [µM] | TGI (M14 melanoma) [µM] | GI50 (HCT-116 colon) [µM] | TGI (HCT-116 colon) [µM] | GI50 (786-0 renal) [µM] | TGI (786-0 renal) [µM] | GI50 (COLO 205 colon) [µM] | TGI (COLO 205 colon) [µM] | GI50 (U251 CNS) [µM] | TGI (U251 CNS) [µM] | GI50 (OVCAR-5 ovarian) [µM] | TGI (OVCAR-5 ovarian) [µM] | GI50 (UO-31 renal) [µM] | TGI (UO-31 renal) [µM] | GI50 (CAKI-1 renal) [µM] | TGI (CAKI-1 renal) [µM] |
| --- | --- | --- | --- | --- | --- | --- | --- | --- | --- | --- | --- | --- | --- | --- | --- | --- | --- | --- | --- | --- |
| Nc1cc(-c2ccc(Cl)cc2)nn1-c1nnc(/C=C/c2ccco2)c(=O)[nH]1 | 1.78 | 6.9 | 6.42 | 61 | 3.41 | 30.6 | 3.15 | 15.8 | 5.04 | 23.9 | 3.64 | > 42.9 | 3 | 37.7 | 10.9 | > 90.5 | 2.41 | 22.6 | 0.842 | 7.04 |
| Cc1c(C(=O)/C=C/c2ccccc2[N+](=O)[O-])[n+](=O)c2ccccc2n1[O-] | – | 26 | – | 25.5 | – | 23.1 | – | 16.5 | – | 17.8 | – | 13.7 | – | 28.5 | – | 26.9 | – | 33 | – | 15.7 |
| CCOC(=O)C1(Cc2ccc3ccccc3c2)CCCCC(=O)N1 (configuration not stated) | – | – | – | > 100 | – | > 100 | – | – | – | > 100 | – | > 100 | – | > 100 | – | – | – | 82.2 | – | > 100 |
| COc1ccc(Nc2nccc(N3CCN(c4c5ccc(Cl)cc5nc5ccc(OC)cc45)CC3)n2)cc1 | 2.4 | 31 | 39.5 | > 100 | 33 | > 100 | 3.87 | > 100 | 5.4 | 47.2 | 16.9 | > 100 | 4.36 | > 100 | > 100 | > 100 | 8.26 | > 100 | 8.93 | > 100 |
| CSc1ccc(N(C)c2nc(C)nc3c2CCC3)cc1 | < 0.01 | < 0.01 | 1.38 | 36.6 | – | – | – | – | < 0.01 | 50 | < 0.01 | < 0.01 | < 0.01 | > 100 | 1.23 | > 100 | – | – | < 0.01 | > 100 |
| O=S1CSSC1 | – | > 100 | – | 59.8 | – | 55.8 | – | 31.7 | – | 47 | – | 32 | – | 37.5 | – | 36.7 | – | 34.7 | – | 77.4 |
| CC1(C)CC(=O)C(CC2C(=O)c3ccccc3C2=O)C(=O)C1 | – | > 100 | – | > 100 | – | > 100 | – | > 100 | – | > 100 | – | > 100 | – | > 100 | – | > 100 | – | > 100 | – | > 100 |
| C=C1C(=O)C23C(O)C1CC[C@H]2C12CCCC(C)(COC(C)=O)[C@H]1[C@H](O)[C@]3(O)OC2 (some centres not stated) | – | 6.77 | – | 2.97 | – | 2.84 | – | 2.3 | – | 2.24 | – | 4.14 | – | 5.4 | – | 5.18 | – | 3.35 | – | 3.44 |
| COC(=O)C1C(=O)N(CCc2c[nH]c3ccccc23)C[C@@H]2CCC(=O)C[C@H]12 (some centres not stated) | – | > 100 | – | > 100 | – | > 100 | – | > 100 | – | > 100 | – | > 100 | – | > 100 | – | – | – | > 100 | – | > 100 |
| O=C(O)c1ccccc1C(=O)c1ccc2c(c1)Cc1ccccc1-2 | – | > 100 | – | > 100 | – | > 100 | – | > 100 | – | > 100 | – | > 100 | – | > 100 | – | > 100 | – | > 100 | – | > 100 |
| Cc1cc(C)n(C2=NS(=O)(=O)c3ccccc3N2C)n1 | – | > 100 | – | > 100 | – | > 100 | – | > 100 | – | > 100 | – | > 100 | – | > 100 | – | > 100 | – | > 100 | – | > 100 |
| CN1c2ccccc2SC2C(c3ccccc3)=NOC21 (configuration not stated) | – | > 100 | – | > 100 | – | > 100 | – | 60.7 | – | > 100 | – | > 100 | – | > 100 | – | > 100 | – | > 100 | – | > 100 |
| Cc1ccc2oc(=O)c(-c3ccccc3)nc2c1 | – | – | – | > 100 | – | > 100 | – | > 100 | – | > 100 | – | 71.1 | – | – | – | 99.8 | – | 95.1 | – | > 100 |
| O=C(Cl)C1=C(c2ccccc2)C1c1ccccc1 (configuration not stated) | – | > 100 | – | > 100 | – | > 100 | – | > 100 | – | > 100 | – | > 100 | – | > 100 | – | > 100 | – | – | – | > 100 |
| Cc1ccccc1/C=C/C(=O)c1ccccc1 | – | 30.2 | – | 33.9 | – | 29.6 | – | 31 | – | 29.9 | – | 46.7 | – | 30.5 | – | 30.9 | – | 36.2 | – | 37.2 |
| CCCCCCC(C)CCCCCCCCCCC(=O)O (configuration not stated) | – | > 100 | – | > 100 | – | > 100 | – | > 100 | – | > 100 | – | > 100 | – | > 100 | – | > 100 | – | > 100 | – | > 100 |
| COc1ccc(C2Oc3c(c(O)cc4c3[C@H](c3ccc(O)cc3O)[C@H](O)C(c3ccc(O)c(O)c3)O4)C[C@@H]2O)cc1O (some centres not stated) | – | > 100 | – | – | – | > 100 | – | > 100 | – | > 100 | – | > 100 | – | > 100 | – | > 100 | – | > 100 | – | > 100 |
| O=C1c2ccccc2-c2c1c1ccccc1c(=O)n2CCNCCn1c2c(c3ccccc3c1=O)C(=O)c1ccccc1-2 | > 25 | > 25 | – | – | > 25 | > 25 | > 25 | > 25 | 12.2 | > 25 | 2.2 | > 25 | > 25 | > 25 | > 25 | > 25 | > 25 | > 25 | > 25 | > 25 |
| CC1c2ccccc2N=C2SC(=S)N3CCN=C3N21 (configuration not stated) | – | – | > 100 | > 100 | > 100 | > 100 | > 100 | > 100 | > 100 | > 100 | > 100 | > 100 | > 100 | > 100 | > 100 | > 100 | > 100 | > 100 | > 100 | > 100 |
